# Test results published in patent US11178872B2 (dated 2021).
row,SMILES,melting point
1,N#Cc1cc(C(=O)N2CCC(c3noc(O)n3)C2)c(C(F)F)nc1-c1ccc(C(F)(F)F)cc1 (centres unmarked),181 to 184 °C
2,Cc1nc(C2CCN(C(=O)c3cc(C#N)c(-c4ccc(C(F)(F)F)cn4)nc3C)CC2)no1,60 to 62 °C
3,Cn1cc(-c2nc(C(F)F)c(C(=O)N3CCC(O)(c4ccc(Cl)cc4)CC3)cc2C#N)cn1,220 °C
4,N#Cc1cc(C(=O)N2CCC(O)(c3ccc(Cl)cc3)CC2)c(C(F)F)nc1-c1ccc(C(F)(F)F)cc1,200 °C
5,N#Cc1cc(C(=O)N2CCC(O)(c3ccccc3Cl)C2)c(C(F)F)nc1-c1ccc(C(F)(F)F)cc1 (centres unmarked),191 to 195 °C
6,CO[C@@]1(c2ccc(C)cc2)[C@@H]2CC[C@H]1CN(C(=O)c1cc(C#N)c(-c3ccc(C(F)(F)F)cc3)nc1C(F)F)C2,228 to 230 °C
7,N#Cc1cc(C(=O)N2CCC(O)(c3ccc(Cl)cc3)CC2)c(C(F)F)nc1-c1ccc(Cl)cn1,175 to 177 °C
8,Cc1nc(C2CCN(C(=O)c3cc(C#N)c(-c4ccc(Cl)s4)nc3C)CC2)no1,69 to 71 °C
9,CCCn1cc(-c2nc(C(F)F)c(C(=O)N3CCC(O)(c4ccc(Cl)cc4)CC3)cc2C#N)cn1,193 to 195 °C
10,N#Cc1cc(C(=O)N2CCC(O)(c3ccc(Cl)cc3)CC2)c(C(F)F)nc1-c1ccc(C(F)(F)F)nc1,177 to 180 °C
11,N#Cc1cc(C(=O)N2CCC(O)(c3ccc(Cl)cc3)CC2)c(C(F)F)nc1-c1ccnc(F)c1,150 to 155 °C
